One assay deals with E. coli ATCC 25922. Briefly: Antibacterial activity, broth microdilution MIC. Particulars: Escherichia coli, ATCC25922, read-out: Minimum Inhibitory Concentration (MIC). In kind it is cell-based. An excerpt: (§1) The referred library of thioxanthones was initially tested for their antimicrobial activity against six bacterial strains: the Gram-negative Escherichia coli ATCC 25922, Pseudomonas aeruginosa ATCC 27853 and Salmonella enterica serovar Typhimurium SL1344 (SE03), with the acrA gene deleted, and the Gram-positive Staphylococcus aureus ATCC 29213, Enterococcus faecalis ATCC 29212 and the methicillin and ofloxacin-resistant clinical isolate S. aureus 272123. For the synergy assay, two clinically relevant isolates were used: the extended-spectrum β-lactamase (ESBL)-producing E. coli SA/2 [23] and the vancomycin-resistant E. faecalis (VRE) B3/101 [23]. The antibiotics used were cefotaxime (CTX) and vancomycin (VAN), respectively.
(§2) The minimum inhibitory concentration (MIC) for each compound was determined by broth microdilution method in a 96-well plate according to the Clinical and Laboratory Standard Institute (CLSI) guidelines. The medium used was MHB II. The concentrations tested ranged from 100 µM to 0.195 µM and were prepared from a stock solution of 10 mM in DMSO, for S. aureus 272123 and SE03; for the other strains, the concentrations tested ranged from 64 µg/mL to 4 µg/mL and were prepared from a stock solution of 10 mg/mL in DMSO. DMSO was used in subinhibitory concentrations (1% v/v). The MIC was determined by visual inspection.
Background: Broth dilution looks for growth in wells or tubes with falling amounts of substance.

In the next assay the test system is E. faecalis ATCC 29212. Nature of the assay: Antibacterial activity, broth microdilution MIC. In kind it is cell-based. The settings on record: Enterococcus faecalis.
Excerpt: as §1, §2

The test system of a further assay is P. aeruginosa ATCC 27853. Nature of the assay: Antibacterial activity, broth microdilution MIC. Particulars: Pseudomonas aeruginosa, ATCC27853, read-out: Minimum Inhibitory Concentration (MIC). The assay is classed as cell-based.
Excerpt: as §1, §2

Assay [1] deals with S. aureus 272123. Nature of the assay: Antibacterial activity, broth microdilution MIC. The assay is classed as cell-based. Particulars: Staphylococcus aureus, 272123, read-out: Minimum Inhibitory Concentration (MIC).
Excerpt: as §1, §2

For a further assay, the system named is S. aureus ATCC 29213. Briefly: Antibacterial activity, broth microdilution MIC. The assay is classed as cell-based. Particulars: Staphylococcus aureus.
Excerpt: as §1, §2

Another assay concerns E. coli SA/2. Briefly: Synergy with cefotaxime (antibiotic MIC in presence of compound). The assay is classed as cell-based.
Excerpt: as §1
The combined effect of the compounds and clinically relevant antimicrobial drugs was evaluated by determining the antibiotic’s MIC in the presence of each compound. […] The antibiotic tested was serially diluted, whereas the concentration of each compound was kept fixed. […]

Assay [2] concerns S. aureus 272123. Nature of the assay: Real-time ethidium bromide accumulation assay (efflux pump inhibition). The assay is classed as cell-based, Staphylococcus aureus. Further details: key: RFI = (RFtreated − RFuntreated)/RFuntreated at minute 60. The settings on record: compounds 50 µM, reserpine 25 µM, minute 60, EB 1 µg/mL. The protocol:
(§3) The relative fluorescence index (RFI) was calculated based on the means of relative fluorescence units, and theses RFIs are depicted in Table 4.
(§4) The compounds were evaluated for their ability to inhibit the efflux of EB, an efflux pump substrate, in Salmonella enterica serovar Typhimurium SE03 and S. aureus 272123 strains, through real-time fluorimetry, monitoring the intracellular accumulation of EB, an efflux pump substrate. This was determined by the automated method using a CLARIOstar Plus plate reader (BMG Labtech, Ortenberg, Germany). Reserpine and CCCP were applied at 25 µM as positive controls, and the solvent DMSO was applied at 1% v/v. The bacterial strains were incubated in an appropriate culture media (TSB–S. aureus 272123; LB-B–SE03) at 37 °C until they reached an optical density (OD) of 0.6 at 600 nm. The culture was centrifuged at 13,000× g for 3 min, and the pellet was washed and resuspended with phosphate buffered saline (PBS, pH 7.4). The suspension was centrifuged again in the same conditions and resuspended in PBS.
(§5) Then, 50 µL of this solution were transferred into a 96-well black microtiter plate (Greiner Bio-One Hungary Kft, Mosonmagyaróvár, Fertősor, Hungary), and 50 µL of bacterial suspension (OD600 = 0.6) were added to each well. The plates were placed into the CLARIOstar plate reader, and the fluorescence was monitored at excitation and emission wavelengths of 530 nm and 600 nm, respectively, every minute for one hour on a real-time basis. From the real-time data, the activity of the compounds, namely the relative fluorescence index (RFI) of the last time point (minute 60) of the EB accumulation assay, was calculated according to the following equation:(1) RFI=RFtreated−RFuntreated/RFuntreated where RFtreated is the relative fluorescence (RF) at the last time point of EB accumulation curve in the presence of the compound, and RFuntreated is the RF at the last time point of the EB accumulation curve of the untreated control, having only the solvent (DMSO) control. The accumulation curves were designed using Microsoft Excel®. The samples were tested in triplicate, and the RFI presented comes from the average of these three values. The accumulation graphs present the mean of the RF at the last time point. The standard deviation (SD) was calculated automatically and included in the RF graphs.

The subject of a further assay is SE03. Described as above. The settings on record: compounds 50 µM (compound 12 at 17 µM), CCCP 25 µM, minute 60, EB 1 µg/mL. The assay is classed as cell-based, Salmonella enterica serovar Typhimurium SL1344. Here is the method:
as §3, §4, §5

The test system of a further assay is S. marcescens. Briefly: Quorum sensing inhibition assay (pigment production). The assay is classed as cell-based, Serratia marcescens AS-1. The settings on record: Serratia marcescens, read-out: Quorum Sensing Inhibition (mm) ± SD. Here is the method:
(§6) Concerning the QS inhibition assay, the sensor strain Chromobacterium violaceum CV026 and the AHL producer strain Sphingomonas paucimobilis Ezf 10-17 (EZF) were inoculated as parallel lines, and the AHL producers Chromobacterium violaceum wild-type 85 (wt85) and Serratia marcescens AS-1 were inoculated as a single line. The interaction between the strains and compounds 2–18 was evaluated as the reduction of pigment production, in millimeters (mm) (Table 5) with promethazine (PMZ) as a positive control.
(§7) The QS inhibitory effect of the compounds was examined on the EZF and the sensor CV026 strains, on the wt85 strain, and on S. marcescens. The method used was the parallel inoculation method, where pair combinations of the used sensor strain CV026 and the N-acyl-homoserine lactone (AHL) producing strain EZF were inoculated directly onto the LB*-A agar surface in parallel, at an approximate distance of 5 mm from each other. S. marcescens AS-1 and wt85 were inoculated as a single line. Filter paper disks (7 mm in diameter) were placed on the center of the inoculated line(s) and impregnated with 8 µL of a solution of 10 mM of the compounds. […] The agar plates were incubated at room temperature (20 °C) for 24−48 h. The QS inhibition was accessed visually, through the inhibition of pigment production. The discolored, but intact, bacterial colonies were measured with a ruler.

Another assay has as its system EZF + CV026. Briefly: Quorum sensing inhibition assay (pigment production), parallel inoculation. The assay is classed as cell-based. Particulars: disk with 8 µL of 10 mM solution, read-out: Quorum Sensing Inhibition (mm) ± SD. The protocol: as §6, §7
[3] abbreviates: ATCC29212, E. faecalis ATCC 29212, read-out: Minimum Inhibitory Concentration (MIC).
[4] abbreviates: ATCC29213, S. aureus ATCC 29213, read-out: Minimum Inhibitory Concentration (MIC).

From publication PMC8232621, “Antimicrobial Activity of a Library of Thioxanthones and Their Potential as Efflux Pump Inhibitors” (Pharmaceuticals, 2021) come the findings set out here.

Structures are written as SMILES. Where two headings read alike, the source gives them in different places. Some results are limits rather than exact numbers.

As for `CCCOc1ccc(NCCO)c2c(=O)c3ccccc3sc12` [Compound 10, 1-[(2-Hydroxyethyl)amino]-4-propoxy-9H-thioxanthen-9-one], the MIC with E. coli ATCC 25922, in the assay with E. faecalis ATCC 29212 (setting [3]), with P. aeruginosa ATCC 27853, in the assay with S. aureus 272123 [1] and in the assay with S. aureus ATCC 29213 (setting [4]) was more than 100 µM in each case. The “decrease in the MIC of CTX” value with E. coli SA/2 was 4 fold. Also, the “RFI ± SD” value worked out at 4.71 ± 0.78 in the assay with S. aureus 272123 [2] and 6.00 ± 0.80 in the assay on SE03. For the same compound, the zone of inhibition at 10000 µM in the assay with S. marcescens and with EZF + CV026 was 0 mm each time.
For the compound `CCCOc1ccc(NS(=O)(=O)c2ccc(C(=O)O)cc2)c2c(=O)c3ccccc3sc12` [Compound 12, 4-[N-(9-Oxo-4-propoxy-9H-thioxanthen-1-yl)sulfamoyl]benzoic acid], the MIC in the assay with E. coli ATCC 25922 is more than 100 µM; with E. faecalis ATCC 29212 (ATCC29212, read-out: Minimum Inhibitory Concentration (MIC)), 34 µM; in the assay on E. faecalis ATCC 29212 (setting [3]) it was 16 µg/mL; in the assay with P. aeruginosa ATCC 27853, more than 100 µM; in the assay with S. aureus 272123 [1] it was more than 100 µM; with S. aureus ATCC 29213 (ATCC29213, read-out: Minimum Inhibitory Concentration (MIC)) it was 34 µM. Also, in the assay with S. aureus ATCC 29213 (setting [4]), the MIC turned out to be 16 µg/mL. Further, the “decrease in the MIC of CTX” value in the assay on E. coli SA/2 stood at 16 fold. Besides, the entries for the “RFI ± SD” value in the assay with S. aureus 272123 [2] and with SE03 were 0.29 ± 0.19 and −0.21 ± 0.07, respectively. Also, the zone of inhibition at 10000 µM with S. marcescens and in the assay on EZF + CV026 was 0 mm each time.
`CCCOc1ccc2c3c(n/c(=N\c4ccccc4C)n2-c2ccccc2C)-c2ccccc2Sc13` [Compound 18]: the MIC with E. coli ATCC 25922, with E. faecalis ATCC 29212 (setting [3]), with P. aeruginosa ATCC 27853, with S. aureus 272123 [1] and in the assay on S. aureus ATCC 29213 (setting [4]) was more than 100 µM each time. Besides, the “decrease in the MIC of CTX” value in the assay with E. coli SA/2 was found to be 4 fold. Also, the “RFI ± SD” value with S. aureus 272123 [2] turned out to be 0.20 ± 0.03; with SE03 it was 0.20 ± 0.02. Besides, the zone of inhibition at 10000 µM in the assay with S. marcescens and with EZF + CV026 was 0 mm throughout.
